Reference: patent US10590463B2, “Diagnostic methods and kits for monitoring response to chemotherapy in ovarian cancer” (RNA Disgnostics Inc., priority 2011, dated 2020)

Test system: A2780 cells
Assay: chemotherapy-dependent RNA degradation (RNA integrity number, Agilent 2100 Bioanalyzer) in cultured A2780 cells
Type: cell-based
Conditions: for concentration at which reductions in RNA integrity are induced: range tested 2.5-40 μM; for effect on RNA integrity (in words): up to 40 μM; for change in RNA integrity at low concentrations: low (micromolar) concentrations
Experimental: Before starting RNA isolation, an appropriate volume of buffer RLT is prepared by adding β-mercaptoethanol to buffer RLT in a ratio of 10 μl for every 1 ml of solution. RLT buffer is stable for a month after addition of β-ME. […] This precipitate was redissolved by warming at 30° C. and then placing the solution at room temperature. Aliquots of 0.5 ml RLT buffer (with β-ME) were placed in Eppendorf microfuge tubes prior to RNA isolation procedures. […] The resulting lysate is passed at least 5 times through a 20-gauge needle (0.9 mm diameter) fitted to an RNase-free syringe to shear associated genomic DNA. The sheared lysate is then transferred to a microcentrifuge tube and centrifuged at maximum speed for 3 minutes, with transfer of the supernatant to a new tube. One volume of 70% ethanol (500 μl) is added to the homogenized lysate, and the sample mixed well by pipetting. If some volume of the lysate is lost during homogenization, the volume of ethanol is adjusted accordingly. […] Up to 700 μl of the sample is then applied to an RNeasy mini column placed in a 2 ml collection tube, including any precipitate that may have formed. […] Any remaining lysate is applied to the column and the column centrifuged as described above, discarding the flow-through. Buffer RW1 (700 μl) is then added to the RNeasy column in a 2 ml microfuge tube to wash the column free of unbound lysate components. […] The RNeasy column is placed into a new 2 ml microfuge tube and 500 μl of RPE buffer is added to wash the column. After centrifugation for 30 seconds at ≥8000×g (≥10,000 rpm) to remove the wash buffer, two identical washes of the column in RPE buffer are performed. This buffer is supplied as a concentrate, and must be diluted with 4 volumes of ethanol (100%) prior to use. Any residual liquid associated with the column is then removed by centrifugation at full speed for 1 minute. […] After leaving the column at room temperature for 1 minute, the column is centrifuged for 1 min at full speed to collect the eluted RNA. To obtain a higher concentration and complete elution of the RNA from column, a second elution step was performed by reapplying the eluate to the column and centrifuging a second time.
This document includes a detailed description on setting up the assay equipment, preparing and running the RNA Nanochips, and analysis of the capillary electrophoretic data using the Agilent […] Bioanalyzer and its associated “Expert software”. It is important that all “Essential Measurement Practices” described in the document are followed. RNA 6000 “Nanochips” and associated solutions are obtained in RNA 6000 Nano kits that can be purchased from Agilent Technologies (Mississauga, ON). RNA Nanochips are manufactured by Caliper Life Sciences (Hopkinton, Mass.). The sizes of the rRNAs, and the concentration of RNA in a given sample are determined by extrapolation from a standard curve of reference RNAs provided in the RNA 6000 NANO kits. All data from the Bioanalyzer runs were stored both as PDF and XAD files. The Agilent 2100 Expert software was used to obtain all data from the capillary electrophoresis runs, including the RNA quality and quantity for a given RNA preparation.

[1] = 40 μM (each drug), same experiment, FIG. 2
[2] = 40 μM (each drug), same experiment, from 9.40±0.12 units, FIG. 2
[3] = A2780 cells, 40 μM, 24 h, FIG. 1

Row | SMILES | concentration at which reductions in RNA integrity are induced (A2780 cells, 24 h) | effect on RNA integrity (in words) (A2780 cells) | reduction in RNA integrity [3] | other results
1 | COc1cccc2c1C(=O)c1c(O)c3c(c(O)c1C2=O)C[C@@](O)(C(=O)CO)C[C@@H]3O[C@H]1C[C@H](N)[C@@H](O)[C@H](C)O1 [epirubicin] | 2.5 µM | – | – | RNA integrity after treatment [1]: 5.87±1.74 units; reduction in RNA integrity [2]: 37.7%; dose-dependent reduction in RNA quality (up to) (A2780 cells, 2.5-40 μM, 24 h, FIG. 1): up to 29.2%
2 | CC[C@]1(O)C[C@@H]2CN(CCc3c([nH]c4ccccc34)[C@@](C(=O)OC)(c3cc4c(cc3OC)N(C)[C@H]3[C@@](O)(C(=O)OC)[C@H](OC(C)=O)[C@]5(CC)C=CCN6CC[C@]43[C@@H]65)C2)C1 [vinblastine] | 2.5 µM | – | – | reduction of RNA integrity (A2780 cells, lowest concentration tested 2.5 μM): almost two
3 | COc1cc([C@@H]2c3cc4c(cc3[C@@H](O[C@@H]3O[C@@H]5CO[C@@H](C)O[C@H]5[C@H](O)[C@H]3O)[C@H]3COC(=O)[C@H]23)OCO4)cc(OC)c1O [etoposide] | – | unable to affect RNA integrity | – | effect on RNA integrity at highest concentration (A2780 cells, 40 μM, 24 h): no effect
4 | CC(=O)O[C@H]1C(=O)[C@@]2(C)[C@H]([C@H](OC(=O)c3ccccc3)[C@]3(O)C[C@H](OC(=O)[C@H](O)[C@@H](NC(=O)c4ccccc4)c4ccccc4)C(C)=C1C3(C)C)[C@]1(OC(C)=O)CO[C@@H]1C[C@@H]2O [paclitaxel] | – | greatest reduction | 75.8% | reduction in RNA integrity (A2780 cells, 20 μM, 24 h, FIG. 1): 52.5%
5 | N.N.[Cl][Pt][Cl] [cisplatin] | – | – | – | effect on RNA integrity at highest concentration (A2780 cells, 40 μM, 24 h): substantial and statistically significant reductions; change in RNA integrity at low concentrations (A2780 cells, 24 h): no effect
6 | COc1cccc2c1C(=O)c1c(O)c3c(c(O)c1C2=O)C[C@@](O)(C(=O)CO)C[C@@H]3O[C@H]1C[C@H](N)[C@H](O)[C@H](C)O1 [doxorubicin] | 2.5 µM | significant reductions | up to 20.0% | –
7 | O=c1[nH]cc(F)c(=O)[nH]1 [5-FI-uracil, 5-fluorouracil] | ≥ 20 µM | – | – | –
8 | CC(=O)O[C@@]12CO[C@@H]1C[C@H](O)[C@@]1(C)C(=O)[C@H](O)C3=C(C)[C@@H](OC(=O)[C@H](O)[C@@H](NC(=O)OC(C)(C)C)c4ccccc4)C[C@@](O)([C@@H](OC(=O)c4ccccc4)[C@H]21)C3(C)C [docetaxel] | – | minimal reduction | 18.8% | RNA integrity after treatment [1]: 8.67±0.42 units; reduction in RNA integrity [2]: 7.8%; change in RNA integrity at low concentrations (A2780 cells, 24 h): little change
